The nature of data set [1]: Storage stability in acetonitrile or acetonitrile/water solution at room temperature. The class given is physicochemical. As to conditions: for decomposition in acetonitrile/water: crude product in acetonitrile/water, kept at room temperature overnight. The method, then: Preparatory HPLC of the crude product gave a mixture of the desired compound in addition to some Compound A (formed during the HPLC separation). After the product was treated with dichloromethane, the solution was dried over MgSO4, and was evaporated to give 15 mg of the ether derivative I-5 as an oily solid (97.7% by HPLC). After the sample was stored for 2 days at room temperature (RT) in acetonitrile solution, it had decomposed to approximately 85% purity with the main byproduct being a ring-opened form of Compound A.
(§1) 3,3-dimethylacrylic acid (96 mg, 0.96 mmol) and HATU (366 mg, 0.96 mmol) were mixed in 2 mL of DMF and 280 μL of DIPEA was added to the mixture. After the addition of Compound A (183 mg, 0.64 mmol), the mixture was stirred for 2 min. Additional DIPEA (280 μL) was added to the solution, and the yellow solution was stirred at room temperature for 2 hr. After the addition of water, the mixture was extracted with EtOAc (4×). The extract was washed with brine (4×), was dried over MgSO4, and was evaporated. […] This material was purified by prep HPLC to obtain 58 mg of II-7 (86% pure) that contained a later eluting byproduct. A sample was assayed for stability in water (63% at the 24-hour time point) and in a pH 7.4 buffer (77% at the 24 hour time point).
Geranic acid ([…], 0.96 mmol) and HATU (366 mg, 0.96 mmol) were mixed in 2 mL of DMF. Following the addition of 280 μL of DIPEA to the solution, Compound A (180 mg, 0.64 mmol) was added to the solution, and the mixture was stirred for 2 min. Additional DIPEA (280 μL) was added, and the yellow solution was stirred at room temperature for 2 hr. Following the addition of water, the mixture was extracted with EtOAc (4×). The extract was washed with brine (4×), was dried over MgSO4, and was evaporated. The crude product II-9 appeared by HPLC to be over 70% in one peak.

Data set [2] in a line: Stability in water and in a pH 7.4 buffer. The settings on record: after 24 hours. It counts as physicochemical. The protocol: A sample of the 15 mg isolated material was evaluated for stability in water and in a pH 7.4 buffer. After 24 hours, the sample in water had 86% remaining and the sample in the pH 7.4 buffer had 92% remaining. The decomposition gave mainly the ring-opened Compound A as a byproduct.
as §1

A short description of data set [3]: Pharmacokinetic data in CD-1 mice after oral administration. It counts as in vivo. As to conditions: mouse, serum, Table 7: CD-1 mice, nominal dose 5.10 mg/kg Cmpd. A or 6.57-8.40 mg/kg DV salt, analyte: dosed derivative (DV).

From patent US20260028340A1 (Supernus Pharmaceuticals, Inc., priority 2023, published 2026) come the findings set out here.

With `CC(C)=CCC/C(C)=C/C(=O)N1CCN=C1c1ccccc1C(=O)c1ccc(Cl)cc1` [II-9, (E)-1-(2-(2-(4-chlorobenzoyl)phenyl)-4,5-dihydro-1H-imidazol-1-yl)-3,7-dimethylocta-2,6-dien-1-one], the decomposition in acetonitrile/water result in data set [1] was “complete decomposition occurred”.
For the compound `COC(=O)COC1(c2ccc(Cl)cc2)c2ccccc2C2=NCCN21` (centres unmarked) [Compound I-5, methyl 2-((5-(4-chlorophenyl)-2,5-dihydro-3H-imidazo[2,1-a]isoindol-5-yl)oxy)acetate], in data set [2], the “remaining, stability in pH 7.4 buffer” value came out at 92% and the “remaining, stability in water” value stood at 86%. In addition, the “purity after storage in acetonitrile solution” value in data set [1] (stored for 2 days at room temperature in acetonitrile solution, initial 97.7% by HPLC) is reported as “approximately 85%”.
For the compound `CC(C)=CC(=O)N1CCN=C1c1ccccc1C(=O)c1ccc(Cl)cc1` [II-7, 1-(2-(2-(4-chlorobenzoyl)phenyl)-4,5-dihydro-1H-imidazol-1-yl)-3-methylbut-2-en-1-one], in data set [2], the “remaining, stability in pH 7.4 buffer” value is 77% and the “remaining, stability in water” value is 63%. Further, in data set [1], the decomposition in acetonitrile/water result is “significant decomposition occurred”.
On to `CC(C)/C=C/COC1(c2ccc(Cl)cc2)c2ccccc2C2=NCCN21` (centres unmarked) [Compound I-17, (E)-5-(4-chlorophenyl)-5-((4-methylpent-2-en-1-yl)oxy)-2,5-dihydro-3H-imidazo[2,1-a]isoindole], for which, in data set [3], the AUC(0-inf) stood at 33.2 ng·h/mL, the AUC(0-t) is 27.6 ng·h/mL, the Cmax was determined as 25.7 ng/mL and the Tmax is 15 min. In addition, the half-life in data set [3] is 78 min.
For the compound `Clc1ccc(COC2(c3ccc(Cl)cc3)c3ccccc3C3=NCCN32)cc1` (centres unmarked) [Compound I-16, 5-((4-chlorobenzyl)oxy)-5-(4-chlorophenyl)-2,5-dihydro-3H-imidazo[2,1-a]isoindole], in data set [3], the AUC(0-inf) came out at 224 ng·h/mL, the AUC(0-t) is 174 ng·h/mL, the Cmax turned out to be 53.3 ng/mL and the Tmax was 35 min. Also, the half-life in data set [3] was 194 min.
